Laboratory results from PubChem BioAssay AID720547 (The Scripps Research Institute Molecular Screening Center, 2013).
Calls of active or inactive are those of the source.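 How the source made its calls: active means compound flagged as a likely artifact in this counterscreen, with IC50 of 10 µM or lower; inactive means IC50 above 10 µM.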

tested on: HEK293 Gal4-VP16 luciferase reporter counterscreen, luminescence; assay: VP16-driven transactivation reporter suppression potency – cell-based, luminescence, HEK293, counter-screen for COUP-TFII inhibitor project, dose response (AID 720547);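 further: potency for lowering the luciferase signal driven by Gal4-VP16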

| Compound | IC50 |
| --- | --- |
| Cc1cc(C)c(CN2CCN(C(=O)Cn3cnc4c(OCc5ccccc5)ncnc43)CC2)c(C)c1 | > 85.3 µM (inactive) |
| CCN(CC)S(=O)(=O)c1cccc(NC(=O)CNc2cccc(S(=O)(=O)N3CCCC3)c2)c1 | > 85.4 µM (inactive) |
| O=C(NCC(c1ccco1)N1CCCC1)c1ccc(Cl)c(S(=O)(=O)N2CCc3ccccc32)c1 (stereo not given) | > 28.5 µM (inactive) |
| O=C(c1cccs1)C1CCN(c2ncnc3sccc23)CC1 | > 85.4 µM (inactive) |
| Cc1nnsc1NC(=O)OCc1ccc(C(C)(C)C)cc1 | > 85.4 µM (inactive) |
| CCOC(=O)N1CCN(C(=O)CSCC(=O)Nc2nc(-c3ccc(-c4ccccc4)cc3)cs2)CC1 | > 28.4 µM (inactive) |
| CC1Cc2cc(-c3csc(NC(=O)Cc4cccs4)n3)ccc2N1S(C)(=O)=O (stereo not given) | 30.5 µM (inactive) |
| Cn1nccc1C(=O)NC1CCCc2c1cnn2-c1ccc(C(C)(C)C)cc1 (stereo not given) | > 85.4 µM (inactive) |
| COc1ccccc1-n1c(-c2ccccc2)c[n+]2c1CCc1ccccc1-2 | > 85.4 µM (inactive) |
| COC(=O)C1CCCCN1C(=O)c1cc(COc2cccc3cnccc23)on1 (stereo not given) | > 85.4 µM (inactive) |
| N#CC(C#N)=C(Nc1ccc(F)cc1)SCc1cccc(Br)c1 | > 85.4 µM (inactive) |
| O=C(/C=C/c1ccc([N+](=O)[O-])cc1)c1ccccc(=O)c1O | 13.2 µM (inactive) |
| OC[C@@H]1CN(Cc2ccc(-c3ccccc3)cc2)C[C@H](n2cnc3c(NC4CCCC4)ncnc32)O1 | 53.4 µM (inactive) |
| COc1ccc(OC)c(CCNC(=O)Cn2nc(C)c3c(C)n(-c4ccc(C)cc4)nc3c2=O)c1 | > 28.5 µM (inactive) |
| CC(=O)c1c(C)[nH]c(C(=O)OCC(=O)Nc2ccc(Cl)cc2[N+](=O)[O-])c1C | > 85.4 µM (inactive) |
| CC(=O)N[C@@H](C)c1nc2ccccc2n1CCCN1CCN(c2nc(-c3ccc(C)cc3)cs2)CC1 | 57 µM (inactive) |
| CCCCCCn1ccc(=N)cc1 | > 85.4 µM (inactive) |
| CCOCCCNC(=S)N1CCN(c2nc(-c3ccc(F)cc3)cs2)CC1 | 45.1 µM (inactive) |
| Cc1cc2c(=Cc3ccc(N(C)C)cc3)c3ccccc3n2[n+]1C | 36.5 µM (inactive) |
| O=c1[nH]c(O)c(N=Nc2ccc3c(c2)OCCO3)c(=O)[nH]1 | 40.4 µM (inactive) |
| CN(CC1CCCO1)S(=O)(=O)c1ccc(C(=O)Nc2nc3cc4c(cc3s2)OCO4)cc1 (stereo not given) | > 85.4 µM (inactive) |
| OC[C@@H]1CN(Cc2ccc(-c3ccccc3)cc2)C[C@H](n2cnc3c(NCc4ccc(F)cc4)ncnc32)O1 | 83.4 µM (inactive) |
| O=C(Cc1ccc(Cl)cc1Cl)Nc1ccncc1Cl | > 85.4 µM (inactive) |

| Compound | IC50 |
| --- | --- |
| NC(=O)c1ccsc1NC(=O)COC(=O)Cc1cccc2ccccc12 | > 85.4 µM (inactive) |
| COc1ccc(C(=O)C2CCN(c3ncnc4sccc34)CC2)cc1 | > 28.4 µM (inactive) |
| COC(=O)c1ccc2nc(Nc3nc4ccc(F)cc4s3)sc2c1 | > 85.4 µM (inactive) |
| Cc1cc(C(=O)NC2CCCc3c2cnn3-c2ccc(C)c(C)c2)n(C)n1 (stereo not given) | > 85.4 µM (inactive) |
| CC(C)(C)c1ccc(C2CC2C(=O)N/N=C\c2ccc[nH]2)cc1 (stereo not given) | > 85.4 µM (inactive) |
| Cc1cc(/C=C2/SC(=S)N(c3cccc(Cl)c3)C2=O)c(C)n1-c1cccnc1 | > 85.4 µM (inactive) |
| CCOc1cccc(/C=N/NC(=S)Nc2ccccc2[N+](=O)[O-])c1O | 20.4 µM (inactive) |
| Fc1ccc2[nH]c3c(N4CCc5ccccc5C4)ncnc3c2c1 | 77.5 µM (inactive) |
| COc1ccc(C(=O)Nc2ccccc2C(=O)N/N=C/c2ccc(O)c(OC)c2)cc1 | > 28.5 µM (inactive) |
| N=c1ccn(CC(=O)c2ccc(-c3ccccc3)cc2)cc1 | > 85.4 µM (inactive) |
| CCN1/C(=C\c2ccc3ccccc3[n+]2CC)Sc2cc(C)ccc21 | 53.9 µM (inactive) |
| Fc1ccc(-n2nnnc2-c2cnc(-c3cccs3)nc2C(F)(F)F)cc1 | 33.4 µM (inactive) |
| Cc1ccc(Cl)cc1S(=O)(=O)N1CCC(C(=O)NC2CCN(Cc3ccccc3)CC2)CC1 | > 85.4 µM (inactive) |
| COc1cccc(CN(C)C(=O)c2ccc(OCC(=O)Nc3cccc(C(F)(F)F)c3)c(OC)c2)c1 | > 28.5 µM (inactive) |
| Oc1ccc(-c2n[nH]c(C(F)(F)F)c2-c2ccccc2)c(O)c1 | > 85.4 µM (inactive) |
| CCOC(=O)N1CCC(NC(=O)C2CCCN(Cc3nc(-c4ccc(CC)cc4)oc3C)C2)CC1 (stereo not given) | 80.1 µM (inactive) |
| Cc1c(C(=O)N2CCN(Cc3ccc4c(c3)OCO4)CC2)sc2ncnc(N3CCN(c4ccccc4F)CC3)c12 | 62.7 µM (inactive) |
| CCCCCCn1c(NCC)nc2c1c(=O)n(C)c(=O)n2C | > 85.4 µM (inactive) |
| Cc1nn(C)c(C)c1CN(C)S(=O)(=O)c1ccc2ccccc2c1 | > 85.4 µM (inactive) |
| Cc1cc(C(=O)NC2CCCc3c2cnn3-c2ccc(C(C)(C)C)cc2)nn1C (stereo not given) | > 85.4 µM (inactive) |
| Cn1c2ccccc2c(=O)c2cc(C#CC3(O)CCCCC3)ccc21 | > 85.4 µM (inactive) |
| CC(C)CNc1ncnc2c1ncn2[C@H]1CN(Cc2ccc(-c3ccccc3)cc2)C[C@@H](CO)O1 | 61.9 µM (inactive) |
